Read-outs that look alike come from different tables or passages of the source.
Key:
[1] = concentration in blood after subcutaneous administration to mice (paper disk method, Morganella morganii IFO 3843); format: in vivo, mice (ddY, male); conditions: mouse, sc, 20 mg/kg subcutaneous
Description: As a representative example, the compound of Example 15 was administered to mice by means of subcutaneous administration, and the concentration in the blood was measured. […] The test compound was dissolved in a physiological sodium chloride solution to obtain a formulation having a concentration of 2 mg/ml. […] Now, Ceftazidime was used as a comparative compound. Further, the antibacterial activities of the sample diluted by plasma to have an appropriate concentration were measured by the paper disk method using Morganella morganii IFO 3843 as the test bacterium.

[2] = system: E. coli GN5482*; assay: in vitro antibacterial activity, agar plate dilution method; format: cell-based; conditions: Escherichia coli, GN5482, 16 h
Method in brief: (§1)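 Overnight Mueller Hinton broth cultures were loop-inoculated onto Mueller Hinton agar containing serial antibiotic concentrations. After 16 h at 37 °C, the MIC (μg/ml) was read.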

[3] = system: K. oxytoca GN10650*; assay: as above; format: cell-based; conditions: Klebsiella oxytoca, GN10650, 16 h
Method in brief: as §1

[4] = system: M. morganii GN5407*; assay: as above; format: cell-based; conditions: Morganella morganii
Method in brief: as §1

[5] = system: K. pneumoniae No. 42*; assay: as above; format: cell-based; conditions: Klebsiella pneumoniae, 16 h
Method in brief: as §1

[6] = system: S. marcescens IAM 1184; assay: as above; format: cell-based; conditions: Serratia marcescens
Method in brief: as §1

[7] = system: Ps. aeruginosa AK 109; assay: as above; format: cell-based; conditions: Pseudomonas aeruginosa
Method in brief: as §1

[8] = system: P. vulgaris No. 33*; assay: as above; format: cell-based; conditions: Proteus vulgaris
Method in brief: as §1

[9] = system: E. coli CSH2(RK1)*; assay: as above; format: cell-based; conditions: Escherichia coli, 16 h
Method in brief: as §1

[10] = system: Ps. aeruginosa AKR17; assay: as above; format: cell-based; conditions: Pseudomonas aeruginosa
Method in brief: as §1

[11] = system: Ps. cepacia 23; assay: as above; format: cell-based
Method in brief: as §1

[12] = system: E. cloacae 963; assay: as above; format: cell-based; conditions: Enterobacter cloacae, 963, 16 h
Method in brief: as §1

[13] = system: S. aureus 209P NIHJ-JC1; assay: as above; format: cell-based; conditions: Staphylococcus aureus
Method in brief: as §1

[14] = system: E. coli NIHJ JC2; assay: as above; format: cell-based; conditions: Escherichia coli, NIHJJC2; 10^6 CFU/ml; Mueller Hinton agar, 37° C., 16 hours; read-out: MIC
Method in brief: as §1

[15] = system: E. cloacae Nek 39*; assay: as above; format: cell-based; conditions: Enterobacter cloacae
Method in brief: as §1

[16] = system: E. coli CSH(RE45)*; assay: as above; format: cell-based; conditions: Escherichia coli; 10^6 CFU/ml; β-Lactamase-producing strain; 37° C., 16 hours; read-out: MIC
Method in brief: as §1

[17] = system: P. vulgaris HX-19; assay: as above; format: cell-based; conditions: Proteus vulgaris
Method in brief: as §1

[18] = system: K. pneumoniae PC1-602; assay: as above; format: cell-based; conditions: Klebsiella pneumoniae
Method in brief: as §1

[19] = system: Ps. aeruginosa IFO3445; assay: as above; format: cell-based; conditions: Pseudomonas aeruginosa
Method in brief: as §1

[20] = system: A. calcoaceticus No. 4; assay: as above; format: cell-based; conditions: Acinetobacter calcoaceticus
Method in brief: as §1

[21] = system: S. marcescens No. 16-2*; assay: as above; format: cell-based; conditions: Serratia marcescens
Method in brief: as §1

[22] = AK109, 10^6 CFU/ml, Mueller Hinton agar, 37° C., 16 hours, read-out: MIC
[23] = 10^6 CFU/ml, β-Lactamase-producing strain, 37° C., 16 hours, read-out: MIC
[24] = Burkholderia cepacia, 23, 10^6 CFU/ml, Mueller Hinton agar, 37° C., 16 hours, read-out: MIC
[25] = 10^6 CFU/ml, Mueller Hinton agar, 37° C., 16 hours, read-out: MIC
[26] = PC1602, 10^6 CFU/ml, Mueller Hinton agar, 37° C., 16 hours, read-out: MIC
[27] = IAM1184, 10^6 CFU/ml, Mueller Hinton agar, 37° C., 16 hours, read-out: MIC
[28] = AKR17, 10^6 CFU/ml, Mueller Hinton agar, 37° C., 16 hours, read-out: MIC
[29] = HX19, 10^6 CFU/ml, Mueller Hinton agar, 37° C., 16 hours, read-out: MIC
[30] = NO.4, 10^6 CFU/ml, Mueller Hinton agar, 37° C., 16 hours, read-out: MIC

SMILES	MIC [2]	MIC [3]	MIC ([4]; GN5407, 16 h)	MIC [5]	MIC ([6]; IAM1184, 16 h)	MIC [7, 22]	MIC [8, 23]	MIC [9]	MIC [11, 24]	MIC [12]	MIC [13, 25]	MIC [14]	MIC ([15]; 16 h)	MIC [16]	MIC [18, 26]	MIC ([19]; IFO3445, 16 h)	MIC [21, 23]	MIC [10, 28]	MIC [17, 29]	MIC [20, 30]	other results
C=C(O/N=C(\C(=O)N[C@@H]1C(=O)N2C(C(=O)O)=C(CSc3nc(C(=O)O)c(-c4ccc(O)c(O)c4)s3)CS[C@H]12)c1csc(N)n1)C(=O)O [Example 15, trisodium 78-[2-(2-aminothiazol-4-yl)-2-(1-carboxylato-1-vinyloxyimino)acetamido]-3-[4-carboxylato-5-(3,4-dihydroxyphenyl)thiazol-2-yl]thiomethyl-3-cephem-4-carboxylate (syn-isomer)]	0.39 µg/mL	0.1 µg/mL	0.025 µg/mL	0.1 µg/mL	0.05 µg/mL	0.78 µg/mL	< 0.006 µg/mL	0.0125 µg/mL	< 0.006 µg/mL	0.05 µg/mL	25 µg/mL	0.39 µg/mL	0.05 µg/mL	0.05 µg/mL	< 0.006 µg/mL	1.56 µg/mL	0.78 µg/mL				concentration at 0.125 h ([1]; 7.5 min): 33800 ng/mL; concentration at 0.25 h ([1]; 15 min): 45000 ng/mL; concentration at 0.5 h ([1]; 30 min): 44300 ng/mL; concentration at 1 h ([1]; 60 min): 21900 ng/mL; concentration at 2 h ([1]; 120 min): 7100 ng/mL; concentration at 4 h ([1]; 240 min): 7200 ng/mL; MIC ([10]; AKR17, 16 h): 1.56 µg/mL; MIC ([17]; HX19, 16 h): 0.0125 µg/mL; MIC ([20]; NO.4, 16 h): 0.39 µg/mL
C=C(O/N=C(\C(=O)N[C@@H]1C(=O)N2C(C(=O)O)=C(COC(C)=O)CS[C@H]12)c1csc(N)n1)C(=O)O [Example 17, disodium 7β-[2-(2-aminothiazol-4-yl)-2-(1-carboxylato-1-vinyloxyimino)acetamido]cephalosporanate (syn-isomer)]	1.56 µg/mL	0.05 µg/mL	0.025 µg/mL	0.2 µg/mL				0.025 µg/mL		0.1 µg/mL	12.5 µg/mL	0.1 µg/mL		0.1 µg/mL	0.0125 µg/mL	6.25 µg/mL	3.12 µg/mL	> 100 µg/mL	< 0.006 µg/mL	25 µg/mL	MIC [6, 27]: 0.0125 µg/mL; MIC ([7]; AK109, 16 h): 6.25 µg/mL; MIC ([8]; 16 h): 0.1 µg/mL; MIC ([11]; Burkholderia cepacia, 23, 16 h): 1.56 µg/mL; MIC [15, 23]: 3.12 µg/mL
C=C(O/N=C(\C(=O)N[C@@H]1C(=O)N2C(C(=O)O)=C(CSc3nnc(C)s3)CS[C@H]12)c1csc(N)n1)C(=O)O [Example 18, disodium 7β-[2-(2-aminothiazol-4-yl)-2-11-carboxylato-1-vinyloxyimino)acetamido]-3-(5-methyl-1,3,4-thiadiazol-2-yl)thiomethyl-3-cephem-4-carboxylate (syn-isomer)]	0.39 µg/mL	0.2 µg/mL		0.39 µg/mL	0.025 µg/mL	12.5 µg/mL	< 0.006 µg/mL	0.025 µg/mL	3.12 µg/mL	0.2 µg/mL	3.12 µg/mL	0.2 µg/mL	0.78 µg/mL	0.1 µg/mL			3.12 µg/mL	> 100 µg/mL	< 0.006 µg/mL	100 µg/mL	MIC ([4]; GN5407, 10^6 CFU/ml, β-Lactamase-producing strain, 37° C., 16 hours, read-out: MIC): 0.0125 µg/mL; MIC ([18]; PC1602, 16 h): 0.025 µg/mL; MIC ([19]; IFO3445, 10^6 CFU/ml, Mueller Hinton agar, 37° C., 16 hours, read-out: MIC): 12.5 µg/mL
C=C(O/N=C(\C(=O)N[C@@H]1C(=O)N2C(C(=O)O)=C(CSc3nnnn3C)CS[C@H]12)c1csc(N)n1)C(=O)O [Example 19, disodium 7β-[2-(2-aminothiazol-4-yl)-2-(1-carboxylato-1-vinyloxyimino)acetamido]-3-(1-methyl-1H-tetrazol-5-yl)thiomethyl-3-cephem-4-carboxylate (syn-isomer)]	0.39 µg/mL	0.05 µg/mL	0.025 µg/mL	0.2 µg/mL			< 0.006 µg/mL	0.025 µg/mL	3.12 µg/mL	0.1 µg/mL		0.05 µg/mL	0.78 µg/mL	0.1 µg/mL	0.0125 µg/mL	6.25 µg/mL		> 100 µg/mL	< 0.006 µg/mL	100 µg/mL	MIC [6, 27]: < 0.006 µg/mL; MIC ([7]; AK109, 16 h): 6.25 µg/mL; MIC ([13]; 16 h): 6.25 µg/mL; MIC ([21]; 16 h): 1.56 µg/mL
C=C(O/N=C(\C(=O)N[C@@H]1C(=O)N2C(C(=O)O)=C(CSc3nnnn3CC(=O)O)CS[C@H]12)c1csc(N)n1)C(=O)O [Example 20, trisodium 7β-[2-(2-aminothiazol-4-yl)-2-(1-carboxylato-1-vinyloxyimino)acetamido]-3-(1-carboxylatomethyl-1H-tetrazol-5-yl)thiomethyl-3-cephem-4-carboxylate (syn-isomer)]	1.56 µg/mL	0.39 µg/mL	0.05 µg/mL	0.78 µg/mL	0.05 µg/mL	12.5 µg/mL	< 0.006 µg/mL	0.2 µg/mL	3.12 µg/mL	0.39 µg/mL	25 µg/mL	0.39 µg/mL		0.78 µg/mL		6.25 µg/mL	3.12 µg/mL	> 100 µg/mL	< 0.006 µg/mL	100 µg/mL	MIC [15, 23]: 3.12 µg/mL; MIC ([18]; PC1602, 16 h): 0.1 µg/mL

— patent publication US5084453A, “1-carboxy-1-vinyloxyimino aminothiazole cephalosporin derivatives” (priority 1988, dated 1992)
